Laboratory results: patent US10028506B2, “Plant strengthener comprising a tocopherol and a boron compound” (COMPO EXPERT GMBH, priority 2013, dated 2018)

Legend:
Format in all cases: in vivo
[1] = tested on: tangerine trees cv. "satsuma" fruits; assay: Protection against sun-scorch, field experiments on tangerines (satsumas); settings: dilute aqueous preparation (0.25 kg/ha); tangerines field experiment
Description: For the field experiments, the formulations were diluted with tap water in an amount of 100 l per kg of formulation. The plants were sprayed with the aqueous dilution with the aid of a commercially available plant protection sprayer at an application rate of 0.25 kg tocopherol/ha. The study was carried out in a fruit plantation in South Africa (Western Cape region, Simondium) in February. To this end, tangerine trees cv. “satsuma” were sprayed with an aqueous dilution of formulation F2 or formulation FV2 6 days before the harvest in two adjacent plots, in parallel experiments. The controls used were in each case untreated trees of the same plot. To determine the damage, in each case approximately 30 fruits were harvested from each tree of the treated trees and of the untreated trees and then observed. The proportion of damaged fruits of the treated trees and of the untreated trees of the respective experiment was determined, and the percentage reduction in damage was determined on this basis. Damage was considered to be yellowish discolorations of the green fruit skin.

[2] = tested on: apple trees cv. "Granny Smith" fruits; assay: Protection against sun-scorch, field experiments on apples; settings: dilute aqueous preparation (0.25 kg/ha); apples field experiment
Description: For the field experiments, the formulations were diluted with tap water in an amount of 100 l per kg of formulation. The plants were sprayed with the aqueous dilution with the aid of a commercially available plant protection sprayer at an application rate of 0.25 kg tocopherol/ha. The study was carried out in an apple plantation in South Africa (Somerset-West region) in February. To this end, apple trees cv. “Granny Smith” were sprayed with an aqueous dilution of formulation F2 or formulation FV2 8 days before the harvest in two adjacent plots, in parallel experiments. The controls used were in each case untreated trees of the same plot. To determine the damage, in each case approximately 30 fruits were harvested from each tree of the treated trees and of the untreated trees and then observed. The proportion of damaged fruits of the treated trees and of the untreated trees of the respective experiment was determined, and the percentage reduction in damage was determined on this basis. Damage was considered to be reddish and brownish discolorations of the fruit skin.

[3] = tested on: sweet cherry (variety Hedelfinger) inflorescences, severed branches; assay: Frost protection activity on sweet cherry inflorescences in frost chamber; settings: dilute aqueous preparation (0.25 kg/ha), −2° C. for 4 hours
Description: (§1) For the following studies, tocopherol-comprising formulations were diluted with water to give a tocopherol concentration of 0.25% by weight.
(§2) Boroethanolamine was diluted with water to give a concentration of 0.25% by weight.
(§3) Freshly severed branches with 20 to 50 inflorescences (inflorescence stage BBCH 60-69) were used for studying the protection of inflorescences. The twigs were sprayed to runoff point with the aqueous dilution of the respective formulation, using a hand-held sprayer.
(§4) The tests of the formulations in respect of their frost protectant activity were carried out under controlled conditions in frost chambers with fruit-tree inflorescences (apple (variety Elstar), severed branches, sweet cherry (variety Hedelfinger), severed branches).
(§5) The fruit trees were treated 24 hours before the frost event by spraying the inflorescences with the dilute formulation.
(§6) (b) Treatment with formulation FV1 (0.25 g/l tocopherol),
(§7) (c) Treatment with formulation F1 (0.25 g/l tocopherol)+0.25 g/l boroethanolamine).
(§8) The branches were severed from the plant shortly before the test and then exposed to a temperature of −2° C. for a defined period (4 hours). On the following day, the relative number of the inflorescences with frost damage was determined visually. Damage was considered to be browning of the floral tissue (pedicel and ovaries).

[4] = tested on: apple (variety Elstar) inflorescences, severed branches; assay: Frost protection activity on apple inflorescences in frost chamber; settings: dilute aqueous preparation (0.25 kg/ha), −2° C. for 4 hours
Description: as §1, §2, §3, §4, §5, §6, §7, §8

NCCOB(O)O [boroethanolamine]
no significant change over the control: change in sun-scorch damage over the control [1] | change in sun-scorch damage over the control [2] | change in frost damage over the control [3] | change in frost damage over the control [4]
